Measured values published in the supplement of paper PMC11451515.

System: NOMO1
Test: cell viability relative to DMSO control; higher = less cytotoxic
Conditions: 48 h
How it was run: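 Viability is expressed as a percentage of DMSO wells within each plate, and cell-free wells serve as background. Seeding densities in the 1536-well plates (5 μl) were 500 cells/well for NOMO1 or SEM leukemia cells and 1000 cells/well for P12-Ichikawa. Each line was adapted for at least four passages in each medium. Library compounds in DMSO were pin-dosed at 47 μM to 0.79 nM (11 points, threefold), and CellTiter-Glo One luminescence was read after 48 h at 37°C.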

[1] = HPLM + 10% dialyzed FBS, 0.000781 µM
[2] = HPLM + 10% dialyzed FBS, 0.00234 µM
[3] = HPLM + 10% dialyzed FBS, 0.00702 µM
[4] = HPLM + 10% dialyzed FBS, 0.0211 µM
[5] = HPLM + 10% dialyzed FBS, 0.0632 µM
[6] = HPLM + 10% dialyzed FBS, 0.19 µM
[7] = HPLM + 10% dialyzed FBS, 0.569 µM
[8] = HPLM + 10% dialyzed FBS, 1.71 µM
[9] = HPLM + 10% dialyzed FBS, 5.12 µM
[10] = HPLM + 10% dialyzed FBS, 15.4 µM
[11] = HPLM + 10% dialyzed FBS, 46.1 µM
[12] = RPMI 5 mM glucose + 10% FBS, 0.000781 µM
[13] = RPMI 5 mM glucose + 10% FBS, 0.00234 µM
[14] = RPMI 5 mM glucose + 10% FBS, 0.00702 µM
[15] = RPMI 5 mM glucose + 10% FBS, 0.0211 µM
[16] = RPMI 5 mM glucose + 10% FBS, 0.0632 µM
[17] = RPMI 5 mM glucose + 10% FBS, 0.19 µM
[18] = RPMI 5 mM glucose + 10% FBS, 0.569 µM
[19] = RPMI 5 mM glucose + 10% FBS, 1.71 µM
[20] = RPMI 5 mM glucose + 10% FBS, 5.12 µM
[21] = RPMI 5 mM glucose + 10% FBS, 15.4 µM
[22] = RPMI 5 mM glucose + 10% FBS, 46.1 µM
[23] = RPMI 5 mM glucose + 10% dialyzed FBS, 0.000781 µM
[24] = RPMI 5 mM glucose + 10% dialyzed FBS, 0.00234 µM
[25] = RPMI 5 mM glucose + 10% dialyzed FBS, 0.00702 µM
[26] = RPMI 5 mM glucose + 10% dialyzed FBS, 0.0211 µM
[27] = RPMI 5 mM glucose + 10% dialyzed FBS, 0.0632 µM
[28] = RPMI 5 mM glucose + 10% dialyzed FBS, 0.19 µM
[29] = RPMI 5 mM glucose + 10% dialyzed FBS, 0.569 µM
[30] = RPMI 5 mM glucose + 10% dialyzed FBS, 1.71 µM
[31] = RPMI 5 mM glucose + 10% dialyzed FBS, 5.12 µM
[32] = RPMI 5 mM glucose + 10% dialyzed FBS, 15.4 µM
[33] = RPMI 5 mM glucose + 10% dialyzed FBS, 46.1 µM

Row | Structure (SMILES) | cell viability [1] [%] | cell viability [2] [%] | cell viability [3] [%] | cell viability [4] [%] | cell viability [5] [%] | cell viability [6] [%] | cell viability [7] [%] | cell viability [8] [%] | cell viability [9] [%] | cell viability [10] [%] | cell viability [11] [%] | cell viability [12] [%] | cell viability [13] [%] | cell viability [14] [%] | cell viability [15] [%] | cell viability [16] [%] | cell viability [17] [%] | cell viability [18] [%] | cell viability [19] [%] | cell viability [20] [%] | cell viability [21] [%] | cell viability [22] [%] | cell viability [23] [%] | cell viability [24] [%] | cell viability [25] [%] | cell viability [26] [%] | cell viability [27] [%] | cell viability [28] [%] | cell viability [29] [%] | cell viability [30] [%] | cell viability [31] [%] | cell viability [32] [%] | cell viability [33] [%]
1 | CCNC(=O)C[C@@H]1\N=C(C2=CC=C(Cl)C=C2)/C3=C(C=CC(=C3)OC)[N]4C(=NN=C14)C | 121 | 130 | 123 | 121 | 114 | 120 | 107 | 84.8 | 68.5 | 29 | 15 | 108 | 118 | 103 | 114 | 121 | 105 | 104 | 90.2 | 76.1 | 26.7 | 6.87 | 106 | 116 | 117 | 109 | 114 | 112 | 98 | 89.7 | 72.4 | 28.4 | 9.69
2 | COc1nc(-c2ccc3c(c2)OCO3)n(-c2ccc(NC(=O)CSc3ccccc3)cc2)n1 | – | – | – | – | – | – | – | – | – | – | – | 105 | 108 | 114 | 103 | 113 | 106 | 107 | 102 | 116 | 89.1 | 21.2 | 102 | 108 | 110 | 117 | 105 | 106 | 103 | 105 | 97.7 | 98.7 | 23.1
3 | C[C@H]1CN(C[C@@H](C)O1)CC(=O)NC2=CC=C3SC4=C(CC3=C2)C=CC=C4\C5=C\C(=O)\C=C(/O5)N6CCOCC6 | 100 | 125 | 108 | 123 | 126 | 128 | 118 | 89.2 | 72.5 | 39.2 | 35 | 93.4 | 125 | 121 | 118 | 107 | 106 | 98.7 | 106 | 96.8 | 64.2 | 55.8 | 85 | 108 | 107 | 106 | 104 | 113 | 100 | 97.3 | 85.5 | 62.7 | 45.2
4 | C[C@@H]1C[C@H]2[C@@H]3\C=C(C)/C4=C/C5=C(C[C@]4(C)[C@H]3[C@@H](O)C[C@]2(C)[C@@]1(O)C(=O)COC(C)=O)C=N[N]5C6=CC=CC=C6 | 116 | 123 | 114 | 113 | 123 | 106 | 106 | 106 | 104 | 108 | 90 | – | – | – | – | – | – | – | – | – | – | – | 127 | 121 | 110 | 122 | 125 | 114 | 109 | 108 | 104 | 109 | 100
5 | C[C@@H](c1ncncc1F)[C@](O)(Cn1cncn1)c1ccc(F)cc1F | 117 | 121 | 110 | 110 | 125 | 114 | 120 | 107 | 111 | 108 | 93.3 | 111 | 111 | 114 | 103 | 108 | 107 | 126 | 108 | 107 | 91.1 | 93.8 | 111 | 114 | 128 | 115 | 111 | 97.9 | 108 | 116 | 99.8 | 111 | 97.4
6 | Fc1ccc(C(c2ccc(F)cc2)N2CCN(C/C=C/c3ccccc3)CC2)cc1 | 115 | 123 | 144 | 135 | 117 | 121 | 104 | 103 | 105 | 112 | 95.9 | 112 | 111 | 106 | 123 | 113 | 114 | 107 | 107 | 108 | 115 | 104 | – | – | – | – | – | – | – | – | – | – | –
7 | CNC(=O)c1cccc(-c2ccc3c(N4CCOC[C@@H]4C)nc(N4CCOC[C@@H]4C)nc3n2)c1 | 99.9 | 99.8 | 83.6 | 92.1 | 73.8 | 61.4 | 64.3 | 67.3 | 60.1 | 49.3 | 53.7 | 98.3 | 91.1 | 91.2 | 96.6 | 79.6 | 82.9 | 87.2 | 68.9 | 57.9 | 60.2 | 45.2 | 83.7 | 85.7 | 90.5 | 79.5 | 75.6 | 62.8 | 62.5 | 54.8 | 50.4 | 49.4 | 50.3
8 | OC[C@H]1O[C@@H](Oc2ccc(O)cc2)[C@H](O)[C@@H](O)[C@@H]1O | 88.1 | 102 | 95.4 | 105 | 95.9 | 102 | 79.7 | 101 | 86.5 | 114 | 104 | 81.4 | 93.9 | 87 | 83.1 | 86 | 87.7 | 98.5 | 91.5 | 92.5 | 90.8 | 88.9 | 65.2 | 74.8 | 85.4 | 82.1 | 82.3 | 79.6 | 89.1 | 94.5 | 86.1 | 95.5 | 93.4
